Source: ChEMBL document CHEMBL1201862, “PubChem BioAssay data set” (2004)
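Five compound concentrations were applied to cells in 96-well plates for 48 hours; endpoints were derived by simple linear interpolation of the resulting dose-response curve. GI50: concentration for 50% inhibition of growth.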 Active and inactive are the calls of the source. Cut-off read from the data, not from the text of the source: active = GI50 up to about 1.1 µM and inactive = higher.

Experiments:
Test in all cases: DTP human tumour cell line panel, 48 h
786-0 = system: 786-0
A498 = system: A498
A549 = system: A549
ACHN = system: ACHN
CAKI-1 = system: CAKI-1
CCRF-CEM = system: CCRF-CEM
COLO 205 = system: COLO 205
DMS-114 = system: DMS-114
DMS-273 = system: DMS-273
EKVX = system: EKVX
HCC 2998 = system: HCC 2998
HCT-116 = system: HCT-116
HL-60 = system: HL-60
HOP-18 = system: HOP-18
HOP-62 = system: HOP-62
HOP-92 = system: HOP-92
HT-29 = system: HT-29
IGROV-1 = system: IGROV-1
K562 = system: K562
KM-20L2 = system: KM-20L2
KM12 = system: KM12
LOX IMVI = system: LOX IMVI
M14 = system: M14
M19-MEL = system: M19-MEL
MOLT-4 = system: MOLT-4
Malme-3M = system: Malme-3M
NCI-H226 = system: NCI-H226
NCI-H23 = system: NCI-H23
NCI-H522 = system: NCI-H522
OVCAR-3 = system: OVCAR-3
OVCAR-4 = system: OVCAR-4
OVCAR-5 = system: OVCAR-5
OVCAR-8 = system: OVCAR-8
RXF 393 = system: RXF 393
RXF 631 = system: RXF 631
SF-268 = system: SF-268
SF-295 = system: SF-295
SF-539 = system: SF-539
SK-MEL-28 = system: SK-MEL-28
SK-MEL-2 = system: SK-MEL-2
SK-MEL-5 = system: SK-MEL-5
SK-OV-3 = system: SK-OV-3
SN12C = system: SN12C
SNB-19 = system: SNB-19
SNB-75 = system: SNB-75
SR = system: SR
SW-620 = system: SW-620
TK-10 = system: TK-10
U-251 = system: U-251
UACC-257 = system: UACC-257
UACC-62 = system: UACC-62
UO-31 = system: UO-31
XF498 = system: XF498
DLD-1 = system: DLD-1
HCT-15 = system: HCT-15
LXFL 529 = system: LXFL 529
NCI-H460 = system: NCI-H460
RPMI-8226 = system: RPMI-8226

With `CC(=O)OCc1c(C)c2ccccc2n1C(C)=O` the GI50 (786-0) was > 100 µM (inactive), the GI50 (A498) was 38.3 µM (inactive) and the GI50 (A549) was 53 µM (inactive). For the same molecule, the GI50 (ACHN) was 25.3 µM (inactive), the GI50 (CAKI-1) was > 100 µM (inactive) and the GI50 (CCRF-CEM) was 18.1 µM (inactive). For the same molecule, the GI50 (COLO 205) was 44.2 µM (inactive), the GI50 (DMS-114) was 22.6 µM (inactive) and the GI50 (DMS-273) was 25.1 µM (inactive). For the same molecule, the GI50 (EKVX) was > 100 µM (inactive), the GI50 (HCC 2998) was 95.3 µM (inactive) and the GI50 (HCT-116) was 44.5 µM (inactive). The GI50 (HL-60) was 23.9 µM (inactive), the GI50 (HOP-18) was 27.7 µM (inactive) and the GI50 (HOP-62) was 63.1 µM (inactive). For the same molecule, the GI50 (HOP-92) was 98.6 µM (inactive), the GI50 (HT-29) was 59.2 µM (inactive) and the GI50 (IGROV-1) was 36.8 µM (inactive). For the same molecule, the GI50 (K562) was 23.7 µM (inactive), the GI50 (KM-20L2) was 53 µM (inactive) and the GI50 (KM12) was 40.5 µM (inactive). For the same molecule, the GI50 (LOX IMVI) was 45 µM (inactive), the GI50 (M14) was > 100 µM (inactive) and the GI50 (M19-MEL) was 53 µM (inactive). For the same molecule, the GI50 (MOLT-4) was 29.7 µM (inactive), the GI50 (Malme-3M) was 25 µM (inactive) and the GI50 (NCI-H226) was 87.5 µM (inactive). For the same molecule, the GI50 (NCI-H23) was 55 µM (inactive), the GI50 (NCI-H522) was 20 µM (inactive) and the GI50 (OVCAR-3) was 26.7 µM (inactive). For the same molecule, the GI50 (OVCAR-4) was 32.1 µM (inactive), the GI50 (OVCAR-5) was > 100 µM (inactive) and the GI50 (OVCAR-8) was 49 µM (inactive). For the same molecule, the GI50 (RXF 393) was 33 µM (inactive), the GI50 (RXF 631) was 25.2 µM (inactive) and the GI50 (SF-268) was 43.6 µM (inactive). The GI50 (SF-295) was 56.9 µM (inactive), the GI50 (SF-539) was 38.2 µM (inactive) and the GI50 (SK-MEL-28) was > 100 µM (inactive). For the same molecule, the GI50 (SK-MEL-2) was 21 µM (inactive), the GI50 (SK-MEL-5) was 35.2 µM (inactive) and the GI50 (SK-OV-3) was 81.3 µM (inactive). The GI50 (SN12C) was 35.7 µM (inactive), the GI50 (SNB-19) was > 100 µM (inactive) and the GI50 (SNB-75) was 82.6 µM (inactive). The GI50 (SR) was 36.1 µM (inactive), the GI50 (SW-620) was 47 µM (inactive) and the GI50 (TK-10) was 30.5 µM (inactive). For the same molecule, the GI50 (U-251) was 36.3 µM (inactive), the GI50 (UACC-257) was 30.3 µM (inactive) and the GI50 (UACC-62) was 36.3 µM (inactive). The GI50 (UO-31) was > 100 µM (inactive) and the GI50 (XF498) was 26.5 µM (inactive).

For `CCN(CC)CCCN(c1cc(OC)cc2nccnc12)S(=O)(=O)c1ccc(C)cc1`, the GI50 (786-0) was > 100 µM (inactive), the GI50 (A498) was > 100 µM (inactive) and the GI50 (A549) was > 100 µM (inactive). For the same molecule, the GI50 (ACHN) was > 100 µM (inactive), the GI50 (CAKI-1) was > 100 µM (inactive) and the GI50 (CCRF-CEM) was 99.1 µM (inactive). For the same molecule, the GI50 (COLO 205) was > 100 µM (inactive), the GI50 (DLD-1) was > 100 µM (inactive) and the GI50 (DMS-114) was > 100 µM (inactive). For the same molecule, the GI50 (DMS-273) was > 100 µM (inactive), the GI50 (EKVX) was > 100 µM (inactive) and the GI50 (HCC 2998) was > 100 µM (inactive). The GI50 (HCT-15) was greater than 100 µM, the GI50 (HL-60) was > 100 µM (inactive) and the GI50 (HOP-18) was > 100 µM (inactive). The GI50 (HOP-62) was > 100 µM (inactive), the GI50 (HOP-92) was > 100 µM (inactive) and the GI50 (HT-29) was > 100 µM (inactive). The GI50 (IGROV-1) was > 100 µM (inactive), the GI50 (K562) was > 100 µM (inactive) and the GI50 (KM-20L2) was > 100 µM (inactive). The GI50 (KM12) was > 100 µM (inactive), the GI50 (LOX IMVI) was > 100 µM (inactive) and the GI50 (LXFL 529) was > 100 µM (inactive). The GI50 (M14) was > 100 µM (inactive), the GI50 (M19-MEL) was > 100 µM (inactive) and the GI50 (MOLT-4) was 74.6 µM (inactive). The GI50 (Malme-3M) was > 100 µM (inactive), the GI50 (NCI-H226) was > 100 µM (inactive) and the GI50 (NCI-H23) was > 100 µM (inactive). The GI50 (NCI-H460) was > 100 µM (inactive), the GI50 (NCI-H522) was > 100 µM (inactive) and the GI50 (OVCAR-3) was > 100 µM (inactive). The GI50 (OVCAR-4) was > 100 µM (inactive), the GI50 (OVCAR-5) was > 100 µM (inactive) and the GI50 (OVCAR-8) was > 100 µM (inactive). The GI50 (RPMI-8226) was > 100 µM (inactive), the GI50 (RXF 393) was 41.1 µM (inactive) and the GI50 (RXF 631) was > 100 µM (inactive). The GI50 (SF-268) was > 100 µM (inactive), the GI50 (SF-295) was > 100 µM (inactive) and the GI50 (SF-539) was > 100 µM (inactive). For the same molecule, the GI50 (SK-MEL-28) was > 100 µM (inactive), the GI50 (SK-MEL-2) was > 100 µM (inactive) and the GI50 (SK-MEL-5) was > 100 µM (inactive). The GI50 (SK-OV-3) was > 100 µM (inactive), the GI50 (SN12C) was > 100 µM (inactive) and the GI50 (SNB-19) was > 100 µM (inactive). For the same molecule, the GI50 (SNB-75) was 37.2 µM (inactive), the GI50 (SR) was > 100 µM (inactive) and the GI50 (SW-620) was > 100 µM (inactive). The GI50 (TK-10) was > 100 µM (inactive), the GI50 (U-251) was > 100 µM (inactive) and the GI50 (UACC-257) was > 100 µM (inactive). For the same molecule, the GI50 (UACC-62) was > 100 µM (inactive), the GI50 (UO-31) was > 100 µM (inactive) and the GI50 (XF498) was > 100 µM (inactive).

In the case of `C[C@]12CCC[C@H](O)[C@H]1C[C@H](CO)CC2`, the GI50 (786-0) is reported as > 100 µM (inactive), the GI50 (A498) is reported as > 100 µM (inactive) and the GI50 (A549) is reported as > 100 µM (inactive). The GI50 (ACHN) was > 100 µM (inactive), the GI50 (CAKI-1) was > 100 µM (inactive) and the GI50 (CCRF-CEM) was > 100 µM (inactive). The GI50 (COLO 205) was > 100 µM (inactive), the GI50 (DLD-1) was > 100 µM (inactive) and the GI50 (DMS-273) was > 100 µM (inactive). The GI50 (HCC 2998) was > 100 µM (inactive), the GI50 (HCT-116) was > 100 µM (inactive) and the GI50 (HCT-15) was greater than 100 µM. The GI50 (HL-60) was > 100 µM (inactive), the GI50 (HOP-18) was > 100 µM (inactive) and the GI50 (HOP-62) was > 100 µM (inactive). For the same molecule, the GI50 (HOP-92) was > 100 µM (inactive), the GI50 (HT-29) was > 100 µM (inactive) and the GI50 (IGROV-1) was > 100 µM (inactive). For the same molecule, the GI50 (K562) was > 100 µM (inactive), the GI50 (KM-20L2) was > 100 µM (inactive) and the GI50 (KM12) was > 100 µM (inactive). The GI50 (LOX IMVI) was > 100 µM (inactive), the GI50 (LXFL 529) was > 100 µM (inactive) and the GI50 (M14) was > 100 µM (inactive). For the same molecule, the GI50 (M19-MEL) was > 100 µM (inactive), the GI50 (MOLT-4) was > 100 µM (inactive) and the GI50 (Malme-3M) was > 100 µM (inactive). For the same molecule, the GI50 (NCI-H226) was > 100 µM (inactive), the GI50 (NCI-H23) was > 100 µM (inactive) and the GI50 (NCI-H460) was > 100 µM (inactive). For the same molecule, the GI50 (NCI-H522) was > 100 µM (inactive), the GI50 (OVCAR-3) was > 100 µM (inactive) and the GI50 (OVCAR-4) was > 100 µM (inactive). The GI50 (OVCAR-5) was > 100 µM (inactive), the GI50 (OVCAR-8) was > 100 µM (inactive) and the GI50 (RPMI-8226) was > 100 µM (inactive). For the same molecule, the GI50 (RXF 631) was > 100 µM (inactive), the GI50 (SF-268) was > 100 µM (inactive) and the GI50 (SF-295) was > 100 µM (inactive). For the same molecule, the GI50 (SF-539) was > 100 µM (inactive), the GI50 (SK-MEL-28) was > 100 µM (inactive) and the GI50 (SK-MEL-2) was > 100 µM (inactive). For the same molecule, the GI50 (SK-OV-3) was > 100 µM (inactive), the GI50 (SN12C) was > 100 µM (inactive) and the GI50 (SNB-19) was > 100 µM (inactive). For the same molecule, the GI50 (SNB-75) was > 100 µM (inactive), the GI50 (SR) was > 100 µM (inactive) and the GI50 (SW-620) was > 100 µM (inactive). The GI50 (TK-10) was > 100 µM (inactive), the GI50 (U-251) was > 100 µM (inactive) and the GI50 (UACC-257) was > 100 µM (inactive). The GI50 (UACC-62) was > 100 µM (inactive), the GI50 (UO-31) was > 100 µM (inactive) and the GI50 (XF498) was > 100 µM (inactive).
